Patent US20220395553A1, “CXCR4 ANTAGONIST PEPTIDES” (COHBAR, INC., priority 2019, published 2022)
Square brackets hold non-standard residues; d marks the D form. Peptide text beside a SMILES is read from it.

How the values were obtained:
[1] = tested on: CXCR4/CXCL12 induced p-MEK; experiment: CXCR4/CXCL12 induced p-MEK in Jurkat cells (ELISA); type: cell-based, human; details: 5 nM CXCL12, 5 min
Procedure: The assay was performed following a protocol similar to that described by Peng, et al., Mol Cancer Ther., 14 480-90 (2015), incorporated herein by reference. […] Jurkat cells were resuspended in standard growth media (RPMI+GlutaMax media; Gibco/Thermo Fisher Scientific; Gaithersburg, Md.) containing 10% FBS and 1% penicillin/streptomycin. Assays were performed using fresh or conditioned media (media cultured overnight in presence of Jurkat cells) to resuspend cells at density of 2×10^6 cells/ml and […] of cell suspension was immediately placed in 1.7 ml microfuge tubes. […] Following the 5 min incubation, cells were centrifuged at 1000×g for 4 min at 4° C. The supernatant was removed and the cells were rinsed with 1 ml of HBSS containing calcium and magnesium. The HBSS was removed and the cells were immediately lysed in 150 l of lysis buffer included with Phospho-MEK1 (Ser217/221) Sandwich ELISA kit (Cell Signaling Technology; Danvers, Mass.); lysis buffer was supplemented with 1 m M PMSF (Millipore-Sigma; Saint Louis, Mo.) and Halt protease/phosphatase inhibitor cocktail (Thermo-Fisher; Waltham, Mass.) prior to use. The samples were then placed on ice for 10 min and vortexed periodically. Following the lysis step, the samples were centrifuged at 12,500 rpm for 10 min at 4° C. p-MEK expression in each of the samples was then measure using Phospho-MEK1 (Ser217/221) Sandwich ELISA kit according to manufacturer's instructions. Absorbance was measured using a Cytation 3 plate reader at […] (BioTek; Winooski, Vt.).

[2] = target: T1, human CXCR4 (Homo sapiens, UniProt P61073); experiment: IC50 for inhibition of CXCR4 activation, β-Arrestin recruitment (Example 22); type: cell-based; design: host or cells: C2C12 (mouse myoblast) CXCR4 β-Arrestin PathHunter cell line
T1 sequence (P61073 whole entry): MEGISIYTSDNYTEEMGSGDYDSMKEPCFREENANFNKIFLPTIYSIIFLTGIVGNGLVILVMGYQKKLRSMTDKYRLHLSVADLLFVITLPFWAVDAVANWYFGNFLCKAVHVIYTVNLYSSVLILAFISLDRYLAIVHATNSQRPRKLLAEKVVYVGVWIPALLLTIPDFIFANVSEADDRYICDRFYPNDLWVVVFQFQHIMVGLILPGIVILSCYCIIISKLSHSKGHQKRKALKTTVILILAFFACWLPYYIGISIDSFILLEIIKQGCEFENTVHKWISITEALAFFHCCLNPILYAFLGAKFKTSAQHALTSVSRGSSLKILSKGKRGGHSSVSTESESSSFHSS
Procedure: The assay was run with the DiscoverX protocol. β-Arrestin recruitment assays were performed by Eurofins-DiscoverX (Fremont, Calif.) using C2C12 CXCR4 β-Arrestin cell line (co-expressing ProLink tagged human CXCR4 and Enzyme Acceptor tagged β-Arrestin) and PathHunter detection kit. Peptides were initially prepared as 1 mM stock in H2O and tested in ten (10)-step concentration response curves using 3-fold dilution steps with 1 μM as highest concentration; a concentration range of 1 μM-0.05 nM was tested. C2C12 CXCR4 β-Arrestin cells were seed onto 384-well plates in standard medium. […] At the end of the 90 min incubation period, β-Arrestin recruitment in response to various treatments was quantified using a chemiluminescent complementation reporter assay to measure association of tagged human […] (ProLink tag) and tagged β-Arrestin (Enzyme Acceptor tag).

[3] = target: T1, human CXCR4; experiment: CXCR4/CXCL12 binding, HTRF format, single concentration (Example 23); design: host or cells: HEK293 (Tag-lite CXCR4 cells, frozen aliquots, transient expression); details: 15 nM CXCR4R fluorescent probe, 3 hours, HEK293 Tag-lite CXCR4 cells
Outline: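 Tag-lite CXCR4 cells were exposed to peptide at 400 nM final with 15 nM (EC80) fluorescent CXCR4 probe for 3 h at room temperature. HTRF was read, and the 665/620 nm ratio ×10,000 measured probe bound to terbium-labelled receptor.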

## CC(C)C[C@H](NC(=O)[C@H](CO)NC(=O)[C@H](CO)NC(=O)[C@H](CCCNC(=N)N)NC(=O)[C@@H](C)NC(=O)[C@H](CO)NC(=O)[C@H](Cc1c[nH]cn1)NC(=O)[C@H](Cc1c[nH]cn1)NC(=O)[C@H](Cc1ccccc1)NC(=O)[C@H](CCCNC(=N)N)NC(=O)[C@H](CCC(=O)O)NC(=O)[C@@H](N)CC(C)C)C(=O)N[C@@H](CCCNC(=N)N)C(=O)N1CCC[C@H]1C(=O)N[C@@H](Cc1ccc(O)cc1)C(=O)N[C@H](C(=O)N[C@@H](CCCCN)C(=O)O)[C@@H](C)O [compound 55] (H-LERFHHS[dA]RSSLRPYTK-OH; N-terminus and C-terminus assumed)
[1]
  Percent Inhibition of CXCR4/CXCL12 Induced p-MEK (100 nM Test Article): 16%
  Percent Inhibition of CXCR4/CXCL12 Induced p-MEK (1 μM Test Article): 72%
[2]
  IC50: 4 nM
[3]
  Percent Inhibition of CXCR4/CXCL12 Binding (400 nM peptide): 56%

## CC(C)C[C@H](NC(=O)[C@H](CO)NC(=O)[C@H](CO)NC(=O)[C@H](CCCNC(=N)N)NC(=O)[C@@H](NC(=O)[C@H](CO)NC(=O)[C@H](Cc1c[nH]cn1)NC(=O)[C@H](Cc1c[nH]cn1)NC(=O)[C@H](Cc1ccc(O)cc1)NC(=O)[C@H](CCCNC(=N)N)NC(=O)[C@H](CCC(=O)O)NC(=O)[C@@H](C)N)C(C)C)C(=O)N[C@@H](CCCNC(=N)N)C(=O)N1CCC[C@H]1C(=O)N[C@@H](Cc1ccc(O)cc1)C(=O)N[C@H](C(=O)N[C@@H](CCCCN)C(=O)O)[C@@H](C)O [compound 34] (H-[dA]ERYHHSVRSSLRPYTK-OH; N-terminus and C-terminus assumed)
[1]
  Percent Inhibition of CXCR4/CXCL12 Induced p-MEK (100 nM Test Article): −1%
  Percent Inhibition of CXCR4/CXCL12 Induced p-MEK (1 μM Test Article): 2%
[2]
  IC50: > 1000 nM
[3]
  Percent Inhibition of CXCR4/CXCL12 Binding (400 nM peptide): −17%

## CC(C)C[C@H](NC(=O)[C@H](CO)NC(=O)[C@@H](NC(=O)[C@H](CCCNC(=N)N)NC(=O)[C@@H](C)NC(=O)[C@H](CO)NC(=O)[C@H](Cc1c[nH]cn1)NC(=O)[C@H](Cc1c[nH]cn1)NC(=O)[C@H](Cc1ccc(O)cc1)NC(=O)[C@H](CCCNC(=N)N)NC(=O)[C@H](CCC(=O)O)NC(=O)[C@@H](N)CC(C)C)[C@@H](C)O)C(=O)N[C@@H](CCCNC(=N)N)C(=O)N1CCC[C@H]1C(=O)N[C@@H](Cc1ccc(O)cc1)C(=O)N[C@H](C(=O)N[C@@H](CCCCN)C(=O)O)[C@@H](C)O [compound 76] (H-LERYHHS[dA]RTSLRPYTK-OH; N-terminus and C-terminus assumed)
[1]
  Percent Inhibition of CXCR4/CXCL12 Induced p-MEK (100 nM Test Article): 5%
  Percent Inhibition of CXCR4/CXCL12 Induced p-MEK (1 μM Test Article): 44%
[2]
  IC50: 6 nM
[3]
  Percent Inhibition of CXCR4/CXCL12 Binding (400 nM peptide): 75%

## CC(C)C[C@H](NC(=O)[C@@H](NC(=O)[C@H](CO)NC(=O)[C@H](CCCNC(=N)N)NC(=O)[C@@H](NC(=O)[C@H](CO)NC(=O)[C@H](Cc1c[nH]cn1)NC(=O)[C@H](Cc1c[nH]cn1)NC(=O)[C@H](Cc1ccc(O)cc1)NC(=O)[C@H](CCCNC(=N)N)NC(=O)[C@H](CCCNC(=N)N)NC(=O)[C@@H](N)CC(C)C)C(C)C)[C@@H](C)O)C(=O)N[C@@H](CCCNC(=N)N)C(=O)N1CCC[C@H]1C(=O)N[C@@H](Cc1ccc(O)cc1)C(=O)N[C@H](C(=O)N[C@@H](CCCCN)C(=O)O)[C@@H](C)O [compound 71] (H-LRRYHHSVRSTLRPYTK-OH; N-terminus and C-terminus assumed)
[1]
  Percent Inhibition of CXCR4/CXCL12 Induced p-MEK (100 nM Test Article): 56%
  Percent Inhibition of CXCR4/CXCL12 Induced p-MEK (1 μM Test Article): 94%
[2]
  IC50: 3 nM
[3]
  Percent Inhibition of CXCR4/CXCL12 Binding (400 nM peptide): 29%

## CC(C)C[C@H](NC(=O)[C@H](CO)NC(=O)[C@H](CO)NC(=O)[C@H](CCCNC(=N)N)NC(=O)[C@@H](NC(=O)[C@H](CO)NC(=O)[C@H](Cc1c[nH]cn1)NC(=O)[C@H](Cc1c[nH]cn1)NC(=O)[C@H](Cc1ccc(O)cc1)NC(=O)[C@H](CCCNC(=N)N)NC(=O)[C@H](CCCNC(=N)N)NC(=O)[C@@H](N)CC(C)C)C(C)C)C(=O)N[C@@H](CC(=O)O)C(=O)N1CCC[C@H]1C(=O)N[C@@H](Cc1ccc(O)cc1)C(=O)N[C@H](C(=O)N[C@@H](CCCCN)C(=O)O)[C@@H](C)O [compound 67] (H-LRRYHHSVRSSLDPYTK-OH; N-terminus and C-terminus assumed)
[1]
  Percent Inhibition of CXCR4/CXCL12 Induced p-MEK (100 nM Test Article): −8%
  Percent Inhibition of CXCR4/CXCL12 Induced p-MEK (1 μM Test Article): 42%
[2]
  IC50: 14 nM
[3]
  Percent Inhibition of CXCR4/CXCL12 Binding (400 nM peptide): 3%

## CC(C)C[C@H](NC(=O)[C@H](CO)NC(=O)[C@H](CO)NC(=O)[C@H](CCCNC(=N)N)NC(=O)[C@@H](NC(=O)[C@H](CO)NC(=O)[C@H](Cc1c[nH]cn1)NC(=O)[C@H](Cc1c[nH]cn1)NC(=O)[C@H](Cc1ccc(O)cc1)NC(=O)[C@H](CCCNC(=N)N)NC(=O)[C@H](CCCNC(=N)N)NC(=O)[C@@H](C)N)C(C)C)C(=O)N[C@@H](CCCNC(=N)N)C(=O)N1CCC[C@H]1C(=O)N[C@@H](Cc1ccc(O)cc1)C(=O)N[C@H](C(=O)N[C@@H](CCCCN)C(=O)O)[C@@H](C)O [compound 33] (H-[dA]RRYHHSVRSSLRPYTK-OH; N-terminus and C-terminus assumed)
[1]
  Percent Inhibition of CXCR4/CXCL12 Induced p-MEK (100 nM Test Article): 7%
  Percent Inhibition of CXCR4/CXCL12 Induced p-MEK (1 μM Test Article): 42%
[2]
  IC50: 7 nM
[3]
  Percent Inhibition of CXCR4/CXCL12 Binding (400 nM peptide): 77%

## CC(C)C[C@H](NC(=O)[C@H](CO)NC(=O)[C@H](CO)NC(=O)[C@H](CCCNC(=N)N)NC(=O)[C@@H](NC(=O)[C@H](CO)NC(=O)[C@H](Cc1c[nH]cn1)NC(=O)[C@H](Cc1c[nH]cn1)NC(=O)[C@H](Cc1ccc(O)cc1)NC(=O)[C@H](CCCNC(=N)N)NC(=O)[C@H](CCCNC(=N)N)NC(=O)[C@@H](N)CC(C)C)C(C)C)C(=O)N[C@@H](CCCNC(=N)N)C(=O)N1CCC[C@H]1C(=O)N[C@@H](Cc1ccccc1)C(=O)N[C@H](C(=O)N[C@@H](CCCCN)C(=O)O)[C@@H](C)O [compound 59] (H-LRRYHHSVRSSLRPFTK-OH; N-terminus and C-terminus assumed)
[1]
  Percent Inhibition of CXCR4/CXCL12 Induced p-MEK (100 nM Test Article): 43%
  Percent Inhibition of CXCR4/CXCL12 Induced p-MEK (1 μM Test Article): 93%
[2]
  IC50: 3 nM
[3]
  Percent Inhibition of CXCR4/CXCL12 Binding (400 nM peptide): −3%

## CC(C)C[C@H](NC(=O)[C@H](CO)NC(=O)[C@H](CO)NC(=O)[C@H](CCCNC(=N)N)NC(=O)[C@@H](NC(=O)[C@H](CO)NC(=O)[C@H](Cc1c[nH]cn1)NC(=O)[C@H](Cc1c[nH]cn1)NC(=O)[C@H](Cc1ccc(O)cc1)NC(=O)[C@H](CCCNC(=N)N)NC(=O)[C@H](CCCNC(=N)N)NC(=O)[C@@H](N)CC(C)C)C(C)C)C(=O)N[C@@H](CCCNC(=N)N)C(=O)N1CCC[C@H]1C(=O)N[C@@H](Cc1ccc(O)cc1)C(=O)N[C@@H](CO)C(=O)N[C@@H](CCCCN)C(=O)O [compound 72] (H-LRRYHHSVRSSLRPYSK-OH; N-terminus and C-terminus assumed)
[1]
  Percent Inhibition of CXCR4/CXCL12 Induced p-MEK (100 nM Test Article): 8%
  Percent Inhibition of CXCR4/CXCL12 Induced p-MEK (1 μM Test Article): 86%
[2]
  IC50: 5 nM
[3]
  Percent Inhibition of CXCR4/CXCL12 Binding (400 nM peptide): 6%

## CC(C)C[C@H](NC(=O)[C@H](CO)NC(=O)[C@H](CO)NC(=O)[C@H](CCCNC(=N)N)NC(=O)[C@@H](C)NC(=O)[C@@H](NC(=O)[C@H](Cc1c[nH]cn1)NC(=O)[C@H](Cc1c[nH]cn1)NC(=O)[C@H](Cc1ccc(O)cc1)NC(=O)[C@H](CCCNC(=N)N)NC(=O)[C@H](CCC(=O)O)NC(=O)[C@@H](N)CC(C)C)[C@@H](C)O)C(=O)N[C@@H](CCCNC(=N)N)C(=O)N1CCC[C@H]1C(=O)N[C@@H](Cc1ccc(O)cc1)C(=O)N[C@H](C(=O)N[C@@H](CCCCN)C(=O)O)[C@@H](C)O [compound 40] (H-LERYHHT[dA]RSSLRPYTK-OH; N-terminus and C-terminus assumed)
[1]
  Percent Inhibition of CXCR4/CXCL12 Induced p-MEK (100 nM Test Article): 33%
  Percent Inhibition of CXCR4/CXCL12 Induced p-MEK (1 μM Test Article): 94%
[2]
  IC50: 5 nM
[3]
  Percent Inhibition of CXCR4/CXCL12 Binding (400 nM peptide): 76%
